Laboratory results: US10865208B2, “ATG7 inhibitors and the uses thereof” (Millennium Pharmaceuticals, Inc., priority 2016, dated 2020)

Molecular target: recombinant human His-ATG7 enzyme (Homo sapiens (Human), UniProt O95352)
Test: ATG7 Enzyme Assay (HTRF/FRET, ATG3-GST and Flag-Gabarap)
Type: biochemical
Conditions: for inhibition at 0.111 µM: Concentration 0.111 μM; for inhibition at 0.111 µM / inhibition at 0.123 µM / inhibition at 0.069 µM: read-out: Percent Inhibition; for inhibition at 0.069 µM: Concentration 0.069 μM
In short: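 0.15 nM His-ATG7 was reacted with 5 nM ATG3-GST, 5 nM Flag-Gabarap and 10 μM ATP in HEPES pH 7.5 containing MgCl2, GSH and TCEP for 105 min at 24° C, then stopped with EDTA/KF. Eu-anti-Flag and anti-GST-APC HTRF was read after 2 h. Results are given as single-concentration % inhibition or IC50.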

recombinant human His-ATG7 enzyme, sequence (O95352 whole entry): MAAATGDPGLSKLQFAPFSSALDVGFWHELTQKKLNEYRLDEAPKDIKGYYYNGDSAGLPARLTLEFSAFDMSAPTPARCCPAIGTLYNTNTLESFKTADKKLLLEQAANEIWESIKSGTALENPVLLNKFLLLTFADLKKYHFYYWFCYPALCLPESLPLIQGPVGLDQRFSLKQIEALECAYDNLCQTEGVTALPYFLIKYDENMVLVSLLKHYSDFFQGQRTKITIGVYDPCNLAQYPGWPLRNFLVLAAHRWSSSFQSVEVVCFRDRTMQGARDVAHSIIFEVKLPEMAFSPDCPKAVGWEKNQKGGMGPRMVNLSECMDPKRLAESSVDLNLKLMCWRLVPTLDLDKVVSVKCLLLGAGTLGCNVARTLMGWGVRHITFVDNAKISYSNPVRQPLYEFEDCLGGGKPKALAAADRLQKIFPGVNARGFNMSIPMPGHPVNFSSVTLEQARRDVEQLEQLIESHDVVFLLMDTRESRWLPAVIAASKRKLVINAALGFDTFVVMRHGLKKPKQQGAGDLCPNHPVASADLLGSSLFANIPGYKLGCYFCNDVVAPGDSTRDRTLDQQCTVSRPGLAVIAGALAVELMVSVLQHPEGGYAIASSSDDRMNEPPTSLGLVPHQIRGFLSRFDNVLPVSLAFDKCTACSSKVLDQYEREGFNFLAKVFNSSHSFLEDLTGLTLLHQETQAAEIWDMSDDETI

Row | Compound | IC50 [nM] | Percent Inhibition (Concentration 0.123 μM) [%] | inhibition at 0.111 µM [%] | inhibition at 0.123 µM (Concentration 0.123 μM) [%] | inhibition at 0.069 µM [%]
1 | CC(O)c1nn([C@@H]2O[C@H](COS(N)(=O)=O)[C@@H](O)[C@H]2O)c2ncnc(N)c12 (single isomer, unassigned) [Compound I-23a, [(2R,3S,4R,5R)-5-{4-amino-3-[(1R)-1-hydroxyethyl]-1H-pyrazolo[3,4-d]pyrimidin-1-yl}-3,4-dihydroxytetrahydrofuran-2-yl]methyl sulfamate or [(2R,3S,4R,5R)-5-{4-amino-3-[(1S)-1-hydroxyethyl]-1H-pyrazolo[3,4-d]pyrimidin-1-yl}-3,4-dihydroxytetrahydrofuran-2-yl]methyl Sulfamate] | > 500 | 19 |  |  | 
2 | Nc1ncnc2c1c(Sc1ccc3c(c1)CCC3)nn2[C@H]1C[C@H](O)[C@H](COS(N)(=O)=O)O1 [Compound I-216, {(2S,3S,5R)-5-[4-amino-3-(2,3-dihydro-1H-inden-5-ylsulfanyl)-1H-pyrazolo[3,4-d]pyrimidin-1-yl]-3-hydroxytetrahydrofuran-2-yl}methyl sulfamate] | 100 to 500 |  | 41 |  | 
3 | Nc1ncnc2c1c(Sc1ccc(Cl)cn1)nn2[C@H]1C[C@H](O)[C@@H](COS(N)(=O)=O)O1 [Compound I-189, [(2R,3S,5R)-5-{4-amino-3-[(5-chloropyridin-2-yl)sulfanyl]-1H-pyrazolo[3,4-d]pyrimidin-1-yl}-3-hydroxytetrahydrofuran-2-yl]methyl sulfamate] | 50 to 100 |  | 60 |  | 
4 | COc1nn([C@H]2C[C@H](O)[C@H](COS(N)(=O)=O)O2)c2ncnc(N)c12 [Compound I-225, [(2S,3S,5R)-5-(4-amino-3-methoxy-1H-pyrazolo[3,4-d]pyrimidin-1-yl)-3-hydroxytetrahydrofuran-2-yl]methyl sulfamate] | > 500 |  | 10 |  | 
5 | Nc1ncnc2c1c(I)nn2[C@H]1C[C@H](O)[C@@H](COS(N)(=O)=O)O1 [Compound I-192, [(2R,3S,5R)-5-(4-amino-3-iodo-1H-pyrazolo[3,4-d]pyrimidin-1-yl)-3-hydroxytetrahydrofuran-2-yl]methyl Sulfamate] | 50 to 100 |  | 61 |  | 
6 | CSc1nn([C@H]2C[C@H](O)[C@@H](COS(N)(=O)=O)O2)c2ncnc(N)c12 [Compound I-200, {(2R,3S,5R)-5-[4-amino-3-(methylsulfanyl)-1H-pyrazolo[3,4-d]pyrimidin-1-yl]-3-hydroxytetrahydrofuran-2-yl}methyl Sulfamate] | 20 to 50 |  | 70 |  | 
7 | Nc1ncnc2c1c(OC(F)F)nn2[C@@H]1O[C@H](COS(N)(=O)=O)[C@@H](O)[C@H]1O [Compound I-27, {(2R,3S,4R,5R)-5-[4-amino-3-(difluoromethoxy)-1H-pyrazolo[3,4-d]pyrimidin-1-yl]-3,4-dihydroxytetrahydrofuran-2-yl}methyl Sulfamate] | 20 to 50 |  |  | 78 | 
8 | Nc1ncnc2c1c(Sc1ccc3c(c1)CCC3)nn2[C@H]1C[C@H](O)[C@@H](COS(N)(=O)=O)O1 [Compound I-160, {(2R,3S,5R)-5-[4-amino-3-(2,3-dihydro-1H-inden-5-ylsulfanyl)-1H-pyrazolo[3,4-d]pyrimidin-1-yl]-3-hydroxytetrahydrofuran-2-yl}methyl Sulfamate] | 50 to 100 |  | 62 |  | 
9 | COc1ccc(Sc2nn([C@H]3C[C@H](O)[C@@H](COS(N)(=O)=O)O3)c3ncnc(N)c23)cc1OC [Compound I-207, [(2R,3S,5R)-5-{4-amino-3-[(3,4-dimethoxyphenyl)sulfanyl]-1H-pyrazolo[3,4-d]pyrimidin-1-yl}-3-hydroxytetrahydrofuran-2-yl]methyl sulfamate] | 50 to 100 |  | 65 |  | 
10 | Nc1ncnc2c1c(Sc1cccc(C(F)(F)F)c1)nn2[C@@H]1O[C@H](COS(N)(=O)=O)[C@@H](O)[C@@H]1F [Compound I-158, [(2R,3R,4S,5R)-5-(4-amino-3-{[3-(trifluoromethyl)phenyl]sulfanyl}-1H-pyrazolo[3,4-d]pyrimidin-1-yl)-4-fluoro-3-hydroxytetrahydrofuran-2-yl]methyl sulfamate] | 50 to 100 |  | 56 |  | 
11 | Cn1cncc1Sc1nn([C@@H]2O[C@H](COS(N)(=O)=O)[C@@H](O)[C@@H]2F)c2ncnc(N)c12 [Compound I-134, [(2R,3R,4S,5R)-5-{4-amino-3-[(1-methyl-1H-imidazol-5-yl)sulfanyl]-1H-pyrazolo[3,4-d]pyrimidin-1-yl}-4-fluoro-3-hydroxytetrahydrofuran-2-yl]methyl Sulfamate] | 100 to 500 |  | 37 |  | 
12 | Nc1ncnc2c1c(CO)nn2[C@@H]1O[C@H](COS(N)(=O)=O)[C@@H](O)[C@H]1O [Compound I-8, {(2R,3S,4R,5R)-5-[4-amino-3-(hydroxymethyl)-1H-pyrazolo[3,4-d]pyrimidin-1-yl]-3,4-dihydroxytetrahydrofuran-2-yl}methyl Sulfamate] | 100 to 500 |  |  |  | 32
13 | Nc1ncnc2c1c(Sc1ccc3ccccc3c1)nn2[C@H]1C[C@H](O)[C@H](COS(N)(=O)=O)O1 [Compound I-210, {(2S,3S,5R)-5-[4-amino-3-(2-naphthylsulfanyl)-1H-pyrazolo[3,4-d]pyrimidin-1-yl]-3-hydroxytetrahydrofuran-2-yl}methyl Sulfamate] | 100 to 500 |  | 35 |  | 
14 | Nc1ncnc2c1c(I)nn2[C@@H]1O[C@H](COS(N)(=O)=O)[C@@H](O)[C@H]1O [Compound I-79, [(2R,3S,4R,5R)-5-(4-amino-3-iodo-1H-pyrazolo[3,4-d]pyrimidin-1-yl)-3,4-dihydroxytetrahydrofuran-2-yl]methyl sulfamate] | < 20 |  |  | 85 | 
15 | Nc1ncnc2c1c(SCC1CC1)nn2[C@@H]1O[C@H](COS(N)(=O)=O)[C@@H](O)[C@@H]1F [Compound I-135, [(2R,3R,4S,5R)-5-{4-amino-3-[(cyclopropylmethyl)sulfanyl]-1H-pyrazolo[3,4-d]pyrimidin-1-yl}-4-fluoro-3-hydroxytetrahydrofuran-2-yl]methyl sulfamate] | 20 to 50 |  | 82 |  | 
16 | C#CCSc1nn([C@@H]2O[C@H](COS(N)(=O)=O)[C@@H](O)[C@H]2O)c2ncnc(N)c12 [Compound I-43, {(2R,3S,4R,5R)-5-[4-amino-3-(prop-2-yn-1-ylsulfanyl)-1H-pyrazolo[3,4-d]pyrimidin-1-yl]-3,4-dihydroxytetrahydrofuran-2-yl}methyl sulfamate] | 20 to 50 |  |  | 75 | 
17 | COCCSc1nn([C@@H]2O[C@H](COS(N)(=O)=O)[C@@H](O)[C@H]2O)c2ncnc(N)c12 [Compound I-35, [(2R,3S,4R,5R)-5-{4-amino-3-[(2-methoxyethyl)sulfanyl]-1H-pyrazolo[3,4-d]pyrimidin-1-yl}-3,4-dihydroxytetrahydrofuran-2-yl]methyl sulfamate] | 20 to 50 |  |  | 72 | 
18 | Nc1ncnc2c1c(Sc1ccc(Cl)cc1)nn2[C@@H]1O[C@H](COS(N)(=O)=O)[C@@H](O)[C@H]1O [Compound I-64, [(2R,3S,4R,5R)-5-{4-amino-3-[(4-chlorophenyl)sulfanyl]-1H-pyrazolo[3,4-d]pyrimidin-1-yl}-3,4-dihydroxytetrahydrofuran-2-yl]methyl sulfamate] | 20 to 50 |  |  | 84 | 
19 | Nc1ncnc2c1c(Sc1ccc3ccccc3n1)nn2[C@H]1C[C@H](O)[C@@H](COS(N)(=O)=O)O1 [Compound I-183, {(2R,3S,5R)-5-[4-amino-3-(quinolin-2-ylsulfanyl)-1H-pyrazolo[3,4-d]pyrimidin-1-yl]-3-hydroxytetrahydrofuran-2-yl}methyl sulfamate] | 100 to 500 |  | 28 |  | 
20 | CSc1nn([C@H]2C[C@H](O)[C@H](COS(N)(=O)=O)O2)c2ncnc(N)c12 [Compound I-219, {(2S,3S,5R)-5-[4-amino-3-(methylsulfanyl)-1H-pyrazolo[3,4-d]pyrimidin-1-yl]-3-hydroxytetrahydrofuran-2-yl}methyl Sulfamate] | 100 to 500 |  | 48 |  | 
21 | Cc1ccc(Sc2nn([C@H]3C[C@H](O)[C@@H](COS(N)(=O)=O)O3)c3ncnc(N)c23)cc1C [Compound I-196, [(2R,3S,5R)-5-{4-amino-3-[(3,4-dimethylphenyl)sulfanyl]-1H-pyrazolo[3,4-d]pyrimidin-1-yl}-3-hydroxytetrahydrofuran-2-yl]methyl sulfamate] | 50 to 100 |  | 65 |  | 
22 | Nc1ncnc2c1c(COCc1ccccc1)nn2[C@@H]1O[C@H](COS(N)(=O)=O)[C@@H](O)[C@H]1O [Compound I-4, [(2R,3S,4R,5R)-5-{4-amino-3-[(benzyloxy)methyl]-1H-pyrazolo[3,4-d]pyrimidin-1-yl}-3,4-dihydroxytetrahydrofuran-2-yl]methyl Sulfamate] | 100 to 500 |  |  |  | 32
23 | Cc1cccc(Sc2nn([C@H]3C[C@H](O)[C@@H](COS(N)(=O)=O)O3)c3ncnc(N)c23)c1 [Compound I-205, [(2R,3S,5R)-5-{4-amino-3-[(3-methylphenyl)sulfanyl]-1H-pyrazolo[3,4-d]pyrimidin-1-yl}-3-hydroxytetrahydrofuran-2-yl]methyl sulfamate] | 50 to 100 |  | 55 |  | 
24 | Nc1ncnc2c1c(C(F)(F)F)nn2[C@H]1C[C@H](O)[C@H](COS(N)(=O)=O)O1 [Compound I-209, {(2S,3S,5R)-5-[4-amino-3-(trifluoromethyl)-1H-pyrazolo[3,4-d]pyrimidin-1-yl]-3-hydroxytetrahydrofuran-2-yl}methyl Sulfamate] | 100 to 500 |  | 42 |  | 
